# Values of other authors in patent US8759098B2, “Method for cloning pluripotent stem cells” (Boston Biomedical Research Institute, Inc., priority 2009, dated 2014).
# How the values were obtained:
# [1] = system: human adult tissue; conditions: used singly and in combination; Lin et al. 2009; cited from earlier work
# [2] = system: somatic cells; conditions: low oxygen conditions; Page et al. 2009; cited from earlier work
Molecule,efficiency of creating stem cells from human adult tissue [1],expression of pluripotency inducing genes [2]
NC(=O)c1ccc(-c2nc(-c3ccccn3)c(-c3ccc4c(c3)OCO4)[nH]2)cc1 [SB43142],dramatically improve the efficiency,
FGF2: fibroblast growth factor 2,,increased
